According to patent US20220257603A1, “COMBINATION THERAPY FOR TREATING MTAP-DEFICIENT TUMORS” (Board of Regents, The University of Texas System, priority 2019, published 2022):

Tests used:
mouse CD8 T cells = assay: Cytokine production by activated mouse CD8 T cells; format: cell-based
Protocol: MTA was added into culture for 72 h.
MTA was added into culture for 72 h. […] Therefore, a triple combination therapy with pemetrexed +A2BR antagonists+anti-PD-L1 (or anti-PD1) can be ultra-effective for MTAP-deficient malignancies through five different mechanisms: (1) direct cytotoxicity (from pemetrexed); (2) decrease of MTA levels (from pemetrexed cytotoxicity) and thus alleviation of inhibition of IFN signaling and T cell function; (3) increases in levels of tumor PD-L1 expression (from pemetrexed); (4) T cell activation by mitigating MTA inhibition (A2BR antagonists); and (5) further T cell activation by inhibiting checkpoint molecule PD-L1 (anti-PD-L1 or anti-PD1).

activated human T cells = conditions: incubation with MTA; cited from earlier work
[1] = tested on: MTAP-knockdown human tumors; assay: Tumor growth in xenograft mouse model, MTAP-knockdown tumor; format: in vivo; conditions: FIG. 2E
Excerpt: (§1) Asterisk represents a patient that died of a car accident and thus was not evaluable.
(§2) Pemetrexed inhibited MTAP-deficient human tumor growth (FIG. 2C) but not MTAP-wild type tumor growth (FIG. 2D) in a xenograft mouse model.

[2] = tested on: MTAP-deficient bladder cancer vs MTAP-wild type bladder cancer; assay: Response of bladder cancer patients to pemetrexed (RECIST); format: in vivo, human
Excerpt: as §1, §2

PD-L1 [3] = assay: PD-L1 expression in vivo on MB49 tumors; conditions: FIG. 4C
Excerpt: (§3) For example, pemetrexed induced PD-L1 in MTAP-deficient bladder cancer cell lines (FIG. 4A). […] Based on this, FIG. 6 provides a proposed phase 2 trial schema for combination treatment with pemetrexed and an anti-PD-L1 therapy (e.g., avelumab).

MB49 tumors = assay: Immune cells in MB49 tumors with in vivo pemetrexed treatment; conditions: FIG. 4B
Excerpt: as §3

MTAP-wild type tumor = assay: Tumor growth in xenograft mouse model, MTAP-wild type tumor; format: in vivo; conditions: FIG. 2D
Excerpt: as §1, §2

[4] = tested on: MTAP-deficient vs. MTAP-wild type human bladder cancer cell lines; assay: Apoptosis (sub-G1 population) after pemetrexed in human bladder cancer cell lines; format: cell-based; conditions: FIG. 2A
Excerpt: as §1, §2

[5] = tested on: MTAP knockdown human bladder cell lines; assay: Apoptosis (sub-G1 population) after MTAP knockdown in human bladder cancer cell lines; format: cell-based; conditions: FIG. 2B
Excerpt: as §1, §2

PD-L1 [6] = assay: PD-L1 expression in MTAP-deficient bladder cancer cell lines after pemetrexed; format: cell-based; conditions: FIG. 4A
Excerpt: as §3

[7] = tested on: MTAP-deficient human tumor; assay: Tumor growth in xenograft mouse model, MTAP-deficient tumor; format: in vivo; conditions: FIG. 2C
Excerpt: as §1, §2

PD-L1 [8] = assay: PD-L1 expression on tumor cells with anti-folate agents; conditions: both in vitro and in vivo
Excerpt: Many types of tumors contain homozygous deletion of the methylthioadenosine phosphorylase (MTAP) gene, which encodes an essential enzyme to catalyze methylthioadenosine (MTA) in the salvage pathway for adenosine synthesis.

With `N#Cc1c(N)nc(SCC(N)=O)c(C#N)c1-c1ccc(OCC2CC2)cc1` [Bay60-6385] the “production of INF-γ” value (mouse CD8 T cells; mouse CD8 T cells activated with anti-CD3/anti-CD28, 72 h, FIGS. 5A & 7A) was “mimic this inhibition” and the “production of TNF-α” value (mouse CD8 T cells; mouse CD8 T cells activated with anti-CD3/anti-CD28, 72 h, FIGS. 5B & 7B) was “mimic this inhibition”.
For `CSC[C@H]1O[C@@H](n2cnc3c(N)ncnc32)[C@H](O)[C@@H]1O` [MTA, methylthioadenosine], the “cytotoxicity to activated human T cells” value (activated human T cells) is listed as “cytotoxic”.
With `CCCn1c(=O)[nH]c2nc(-c3ccc(S(=O)(=O)N4CCN(c5ccc(Cl)cc5)CC4)cc3)[nH]c2c1=O` [PSB-603] the “rescue of MTA-induced inhibition on the production of INF-γ” value (mouse CD8 T cells; PSB603+MTA, mouse CD8 T cells, FIG. 7A) was “partially rescue” and the “rescue of MTA-induced inhibition on the production of TNF-α” value (mouse CD8 T cells; PSB603+MTA, mouse CD8 T cells, FIG. 7B) was “partially rescue”.
With `Nc1nc2[nH]cc(CCc3ccc(C(=O)N[C@@H](CCC(=O)O)C(=O)O)cc3)c2c(=O)[nH]1` [Pemetrexed] the tumor growth [1] was “inhibited growth”, the “response rate, MTAP-deficient vs MTAP-wild type bladder cancer patients” value ([2]; combined retrospective and prospective data, FIG. 2H) was “higher response rate” and the “response rate, MTAP-deficient vs MTAP-wild type bladder cancer patients” value ([2]; prospective data, FIG. 2G) was “higher response rate”. For the same compound, the “response rate, MTAP-deficient vs MTAP-wild type bladder cancer patients” value ([2]; retrospective data, FIG. 2F) was “higher response rate”, the “PD-L1 expression in vivo” value (PD-L1 [3]) was “induced PD-L1” and the “CD4/8 T cells in tumors” value (MB49 tumors) was “increased”. For the same compound, the MDSCs in tumors (MB49 tumors) was “decreased”, the “dendritic cells in tumors” value (MB49 tumors) was “increased” and the macrophages in tumors (MB49 tumors) was “increased”. The tumor growth (MTAP-wild type tumor) was “not”, the “potency in inducing apoptosis (sub-G1 population), MTAP-deficient vs. MTAP-wild type” value [4] was “at least 40 fold” and the “apoptosis with pemetrexed treatment” value [5] was “significant apoptosis”. The PD-L1 expression (PD-L1 [6]) was “induced PD-L1”, the tumor growth [7] was “inhibited” and the “PD-L1 expression on tumor cells” value (PD-L1 [8]) was “induce PD-L1 expression”.
With `CN(Cc1cnc2nc(N)nc(N)c2n1)c1ccc(C(=O)N[C@@H](CCC(=O)O)C(=O)O)cc1` [methotrexate, Methotrexate] the “PD-L1 expression on tumor cells” value (PD-L1 [8]) was “induce PD-L1 expression”.
